The record followed here is EP4745151A1, “FIBROBLAST ACTIVATION PROTEIN LIGAND AND USE THEREOF” (Jiangsu Hengrui Pharmaceuticals Co., Ltd., priority 2023, dated 2025).

Data set [1] deals with T1, FAPα (Homo sapiens, UniProt Q12884).
T1 sequence (Q12884 1-760): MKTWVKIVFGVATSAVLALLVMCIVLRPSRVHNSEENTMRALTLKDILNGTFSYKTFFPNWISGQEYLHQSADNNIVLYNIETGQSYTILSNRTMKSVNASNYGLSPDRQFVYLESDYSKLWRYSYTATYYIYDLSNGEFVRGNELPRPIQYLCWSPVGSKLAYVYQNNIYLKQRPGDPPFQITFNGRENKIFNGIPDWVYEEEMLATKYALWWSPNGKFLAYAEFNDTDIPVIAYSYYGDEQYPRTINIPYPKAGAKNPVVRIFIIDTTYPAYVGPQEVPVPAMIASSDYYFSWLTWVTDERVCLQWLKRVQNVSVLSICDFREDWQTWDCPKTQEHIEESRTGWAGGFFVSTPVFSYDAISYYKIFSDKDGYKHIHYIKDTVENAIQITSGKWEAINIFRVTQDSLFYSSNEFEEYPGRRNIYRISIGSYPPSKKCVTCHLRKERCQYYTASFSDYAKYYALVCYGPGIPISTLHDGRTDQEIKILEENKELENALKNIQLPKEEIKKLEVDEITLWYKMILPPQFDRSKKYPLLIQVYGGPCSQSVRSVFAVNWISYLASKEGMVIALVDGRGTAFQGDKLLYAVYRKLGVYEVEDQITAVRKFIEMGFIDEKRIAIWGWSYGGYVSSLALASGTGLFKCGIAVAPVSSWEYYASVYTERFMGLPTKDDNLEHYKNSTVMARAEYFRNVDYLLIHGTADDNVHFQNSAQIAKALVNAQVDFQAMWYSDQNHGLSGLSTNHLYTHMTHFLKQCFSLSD
In words: FAPα enzyme activity test. It counts as biochemical. As to conditions: substrate Z-Gly-Pro-AMC, 37°C. The procedure: The substrate (Z-Gly-Pro-AMC) was diluted with DMSO to prepare a 0.5 mM stock solution. Before each experiment, the 0.5 mM stock solution was diluted with PBS to 50 µM for later use. The FAPα protein was diluted with PBS to 0.5 ng/µl for later use. […] The test compounds and positive control were subjected to a 5-fold serial dilution with PBS to obtain 8 gradients for later use, with the highest concentration being 10 µM, and the lowest concentration being […]. Test method: 85 µl of the FAPα dilution and 10 µl of the compound dilution were added to a microplate, uniformly mixed and incubated at 37°C for 10 min. Then, 5 µl of 50 µM substrate was added, uniformly mixed and incubated at 37°C for 10 min. The microplate was read on a microplate reader, with an excitation wavelength of 380 nm and an emission wavelength of 465 nm.

Data set [2] deals with U-87 MG cells. The conditions noted are these: mouse, in vivo; for Tumour/kidney: B-NDG, iv.
Method: (§1) Experimental animals: Germline: B-NDG (Biocytogen Jiangsu Co., Ltd.); Age: 5-8 weeks old; Body weight: 20-24 g.
(§2) A sufficient quantity of U-87 MG cells was prepared and inoculated into the posterior position of the right forelimb of B-NDG mice in an inoculation volume of 100 µl, containing 50% Matrigel and 5 × 10^6 cells. After inoculation, the tumour volume and animal body weight were monitored twice a week. Model mice with a tumour volume between 200 and 500 m^3 were selected for enrolment in this experiment and randomly grouped on the basis of tumour volume.
Data set [3] can be described thus: in vivo. As to conditions: B-NDG, mouse, iv, total radioactivity, Tumour/kidney.
Method: as §1, §2

Each structure is given as a SMILES string. Where two headings read alike, the source gives them in different places. Numbered stars: 1 amine (or outer) side, 2 acyl side, 3 side chain; on linkers, the order of the positions; unused ones are H or OH. Bridge positions count the residues as written; N and C are the ends. Square brackets hold non-standard residues; d marks the D form. Peptide text beside a SMILES is read from it. * marks the point of attachment. TBMB(SCH2CH2NH-DOTA) = O=C(O)CN1CCN(CC(=O)O)CCN(CC(=O)NCCSCc2cc(C[*:1])cc(C[*:2])c2)CCN(CC(=O)O)CC1; X1 = O=C(O)CN1CCN(CC(=O)O)CCN(CC(=O)NCCSCc2cc(C[*:1])cc(C[*:2])c2)CC1; Phe(2-CF3) = N[C@@H](Cc1ccccc1C(F)(F)F)C(=O)O; Pro(trans-4-F) = O=C(O)[C@@H]1C[C@@H](F)CN1; Phe(3-F) = N[C@@H](Cc1cccc(F)c1)C(=O)O; Phe(4-F) = N[C@@H](Cc1ccc(F)cc1)C(=O)O; Phe(2-F) = N[C@@H](Cc1ccccc1F)C(=O)O; Hyp = O=C(O)[C@@H]1C[C@@H](O)CN1; Hexanoyl = CCCCCC(=O)*; Aib = CC(C)(N)C(=O)O

With `CCCCCC(=O)N[C@H]1CSCc2cc(CSCCNC(=O)CN3CCN(CC(=O)O)CCN(CC(=O)O)CCN(CC(=O)O)CC3)cc(c2)CSC[C@@H](C(=O)O)NC(=O)[C@H](Cc2ccccc2C(F)(F)F)NC(=O)[C@H](CCC(N)=O)NC(=O)[C@H]([C@@H](C)O)NC(=O)[C@@H]2C[C@@H](O)CN2C(=O)[C@@H]2CCCN2C(=O)C(C)(C)NC1=O` [DOTA-09] (Hexanoyl-C[Aib]P[Hyp]TQ[Phe(2-CF3)]C-OH; linker 1-8 via TBMB(SCH2CH2NH-DOTA)), the IC50 in data set [1] came out at 0.28 nM.

`CCCCCC(=O)N[C@H]1CSCc2cc(CSCCNC(=O)CN3CCN(CC(=O)O)CCN(CC(=O)O)CCN(CC(=O)O)CC3)cc(c2)CSC[C@@H](C(=O)O)NC(=O)[C@H](Cc2ccccc2)NC(=O)[C@H](CCC(N)=O)NC(=O)[C@H]([C@@H](C)O)NC(=O)[C@@H]2CCCN2C(=O)[C@@H]2CCCN2C1=O` [FAP-2286, reference compound]: it took 11.7 nM to reach half-maximal inhibition in data set [1] (IC50).

Turning to `CCCCCC(=O)N[C@H]1CSCc2cc(CSCCNC(=O)CN3CCN(CC(=O)O)CCN(CC(=O)O)CC3)cc(c2)CSC[C@@H](C(=O)O)NC(=O)[C@H](Cc2ccccc2)NC(=O)[C@H](CCC(N)=O)NC(=O)[C@H]([C@@H](C)O)NC(=O)[C@@H]2CCCN2C(=O)[C@@H]2CCCN2C1=O` [NOTA-2286, reference compound], half-maximal inhibition in data set [1] (IC50) required 0.59 nM.

As to `CCCCCC(=O)N[C@H]1CSCc2cc(CSCCNC(=O)CN3CCN(CC(=O)O)CCN(CC(=O)O)CCN(CC(=O)O)CC3)cc(c2)CSC[C@@H](C(=O)O)NC(=O)[C@H](Cc2ccccc2)NC(=O)[C@H](CCC(N)=O)NC(=O)[C@H]([C@@H](C)O)NC(=O)[C@@H]2C[C@@H](O)CN2C(=O)[C@@H]2CCCN2C(=O)C(C)(C)NC1=O` [DOTA-05] (Hexanoyl-C[Aib]P[Hyp]TQFC-OH; linker 1-8 via TBMB(SCH2CH2NH-DOTA)), the IC50 in data set [1] stood at 1.16 nM.

In the case of `CCCCCC(=O)N[C@H]1CSCc2cc(CSCCNC(=O)CN3CCN(CC(=O)O)CCN(CC(=O)O)CC3)cc(c2)CSC[C@@H](C(=O)O)NC(=O)[C@H](Cc2ccccc2)NC(=O)[C@H](CCC(N)=O)NC(=O)[C@H]([C@@H](C)O)NC(=O)[C@@H]2C[C@@H](O)CN2C(=O)[C@@H]2CCCN2C(=O)C(C)(C)NC1=O` [NOTA-05] (Hexanoyl-C[Aib]P[Hyp]TQFC-OH; linker 1-8 via X1), 0.45 nM corresponded to half-maximal inhibition in data set [1] (IC50).

In data set [1], `CCCCCC(=O)N[C@H]1CSCc2cc(CSCCNC(=O)CN3CCN(CC(=O)O)CCN(CC(=O)O)CCN(CC(=O)O)CC3)cc(c2)CSC[C@@H](C(=O)O)NC(=O)[C@H](Cc2ccccc2F)NC(=O)[C@H](CCC(N)=O)NC(=O)[C@H]([C@@H](C)O)NC(=O)[C@@H]2C[C@@H](O)CN2C(=O)[C@@H]2CCCN2C(=O)C(C)(C)NC1=O` [DOTA-06] (Hexanoyl-C[Aib]P[Hyp]TQ[Phe(2-F)]C-OH; linker 1-8 via TBMB(SCH2CH2NH-DOTA)) registered an IC50 of 0.93 nM.

Consider `CCCCCC(=O)N[C@H]1CSCc2cc(CSCCNC(=O)CN3CCN(CC(=O)O)CCN(CC(=O)O)CCN(CC(=O)O)CC3)cc(c2)CSC[C@@H](C(=O)O)NC(=O)[C@H](Cc2ccccc2F)NC(=O)[C@H](CCC(N)=O)NC(=O)[C@H]([C@@H](C)O)NC(=O)[C@@H]2C[C@@H](F)CN2C(=O)[C@@H]2CCCN2C(=O)C(C)(C)NC1=O` [DOTA-13] (Hexanoyl-C[Aib]P[Pro(trans-4-F)]TQ[Phe(2-F)]C-OH; linker 1-8 via TBMB(SCH2CH2NH-DOTA)), for which the IC50 in data set [1] is 1.09 nM.

`CCCCCC(=O)N[C@H]1CSCc2cc(CSCCNC(=O)CN3CCN(CC(=O)O)CCN(CC(=O)O)CCN(CC(=O)O)CC3)cc(c2)CSC[C@@H](C(=O)O)NC(=O)[C@H](Cc2ccccc2)NC(=O)[C@H](CCC(N)=O)NC(=O)[C@H]([C@@H](C)O)NC(=O)[C@@H]2C[C@@H](F)CN2C(=O)[C@@H]2CCCN2C(=O)C(C)(C)NC1=O` [DOTA-12] (Hexanoyl-C[Aib]P[Pro(trans-4-F)]TQFC-OH; linker 1-8 via TBMB(SCH2CH2NH-DOTA)): the IC50 in data set [1] worked out at 1.08 nM.

`CCCCCC(=O)N[C@H]1CSCc2cc(CSCCNC(=O)CN3CCN(CC(=O)O)CCN(CC(=O)O)CCN(CC(=O)O)CC3)cc(c2)CSC[C@@H](C(=O)O)NC(=O)[C@H](Cc2cccc(F)c2)NC(=O)[C@H](CCC(N)=O)NC(=O)[C@H]([C@@H](C)O)NC(=O)[C@@H]2C[C@@H](O)CN2C(=O)[C@@H]2CCCN2C(=O)C(C)(C)NC1=O` [DOTA-07] (Hexanoyl-C[Aib]P[Hyp]TQ[Phe(3-F)]C-OH; linker 1-8 via TBMB(SCH2CH2NH-DOTA)) returned an IC50 in data set [1] of 1.5 nM.

Regarding `CCCCCC(=O)N[C@H]1CSCc2cc(CSCCNC(=O)CN3CCN(CC(=O)O)CCN(CC(=O)O)CC3)cc(c2)CSC[C@@H](C(=O)O)NC(=O)[C@H](Cc2ccccc2F)NC(=O)[C@H](CCC(N)=O)NC(=O)[C@H]([C@@H](C)O)NC(=O)[C@@H]2C[C@@H](O)CN2C(=O)[C@@H]2CCCN2C(=O)C(C)(C)NC1=O` [NOTA-06] (Hexanoyl-C[Aib]P[Hyp]TQ[Phe(2-F)]C-OH; linker 1-8 via X1), the IC50 in data set [1] is 0.088 nM.

In the case of `CCCCCC(=O)N[C@H]1CSCc2cc(CSCCNC(=O)CN3CCN(CC(=O)O)CCN(CC(=O)O)CC3)cc(c2)CSC[C@@H](C(=O)O)NC(=O)[C@H](Cc2ccccc2)NC(=O)[C@H](CCC(N)=O)NC(=O)[C@H]([C@@H](C)O)NC(=O)[C@@H]2CCCN2C(=O)[C@@H]2CCCN2C1=O` [Al^18F-NOTA-2286, reference compound], the Tumour/kidney in data set [2] (0.5 h) was 2.57±0.09; in data set [2] (1.5 h) it was 11.24±1.79; in data set [2] (3 h), 10.06±1.60.

The compound `CCCCCC(=O)N[C@H]1CSCc2cc(CSCCNC(=O)CN3CCN(CC(=O)O)CCN(CC(=O)O)CCN(CC(=O)O)CC3)cc(c2)CSC[C@@H](C(=O)O)NC(=O)[C@H](Cc2ccc(F)cc2)NC(=O)[C@H](CCC(N)=O)NC(=O)[C@H]([C@@H](C)O)NC(=O)[C@@H]2C[C@@H](O)CN2C(=O)[C@@H]2CCCN2C(=O)C(C)(C)NC1=O` [DOTA-08] (Hexanoyl-C[Aib]P[Hyp]TQ[Phe(4-F)]C-OH; linker 1-8 via TBMB(SCH2CH2NH-DOTA)) yielded an IC50 in data set [1] of 0.53 nM.

For `CCCCCC(=O)N[C@H]1CSCc2cc(CSCCNC(=O)CN3CCN(CC(=O)O)CCN(CC(=O)O)CCN(CC(=O)O)CC3)cc(c2)CSC[C@@H](C(=O)O)NC(=O)[C@H](Cc2ccccc2)NC(=O)[C@H](CCC(N)=O)NC(=O)[C@H]([C@@H](C)O)NC(=O)[C@@H]2CCCN2C(=O)[C@@H]2CCCN2C1=O` [^68Ga-FAP-2286, metal not drawn], in data set [3], the tissue to tissue ratio at 1 h is 1.56 ± 0.11 and the tissue to tissue ratio at 3 h was 0.87 ± 0.14.

For the compound `CCCCCC(=O)N[C@H]1CSCc2cc(CSCCNC(=O)CN3CCN(CC(=O)O)CCN(CC(=O)O)CC3)cc(c2)CSC[C@@H](C(=O)O)NC(=O)[C@H](Cc2ccccc2)NC(=O)[C@H](CCC(N)=O)NC(=O)[C@H]([C@@H](C)O)NC(=O)[C@@H]2CCCN2C(=O)[C@@H]2CCCN2C1=O` [^68Ga-NOTA-2286, metal not drawn, reference compound], the Tumour/kidney in data set [2] (1.5 h) is recorded as 1.77±0.31; in data set [2] (3 h), 2.43±1.04. In addition, the tissue to tissue ratio at 0.5 h in data set [3] was 1.59 ± 0.55.

For the compound `CCCCCC(=O)N[C@H]1CSCc2cc(CSCCNC(=O)CN3CCN(CC(=O)O)CCN(CC(=O)O)CCN(CC(=O)O)CC3)cc(c2)CSC[C@@H](C(=O)O)NC(=O)[C@H](Cc2ccccc2C(F)(F)F)NC(=O)[C@H](CCC(N)=O)NC(=O)[C@H]([C@@H](C)O)NC(=O)[C@@H]2C[C@@H](O)CN2C(=O)[C@@H]2CCCN2C(=O)C(C)(C)NC1=O` [^68Ga-DOTA-09, metal not drawn] (Hexanoyl-C[Aib]P[Hyp]TQ[Phe(2-CF3)]C-OH; linker 1-8 via TBMB(SCH2CH2NH-DOTA)), in data set [2], the “tumour uptake compared with control” value is “significantly higher”, the “tumour/kidney ratio compared with control” value was “significantly higher” and the “tumour/kidney uptake ratio compared with control” value is “significantly higher”. Moreover, in data set [3], the tissue to tissue ratio at 0.5 h is 2.81 ± 0.21 and the tissue to tissue ratio at 1.5 h turned out to be 5.34 ± 0.92.
